Publication PMC8725971, “Polycyclic nitrogen heterocycles as potential thymidine phosphorylase inhibitors: synthesis, biological evaluation, and molecular docking study” (Journal of Enzyme Inhibition and Medicinal Chemistry, 2021)
Converted amounts (≈) assume the structure as drawn. Where a name gives a salt, the structure may show the parent alone. Each block holds one compound with its values, some of them ahead of it.

Key:
E. coli TP = biological target: T1, E. coli TP (Escherichia coli, UniProt P07650); experiment: In vitro E. coli thymidine phosphorylase inhibition, spectrophotometric assay at 290 nm; assay type: biochemical; conditions: for inhibition at 30 µM: read-out: TP inhibition (%) at maximum solubility (30 µM)
T1 construct: purchased Sigma Aldrich T2807-1KU
T1 sequence (P07650 whole entry): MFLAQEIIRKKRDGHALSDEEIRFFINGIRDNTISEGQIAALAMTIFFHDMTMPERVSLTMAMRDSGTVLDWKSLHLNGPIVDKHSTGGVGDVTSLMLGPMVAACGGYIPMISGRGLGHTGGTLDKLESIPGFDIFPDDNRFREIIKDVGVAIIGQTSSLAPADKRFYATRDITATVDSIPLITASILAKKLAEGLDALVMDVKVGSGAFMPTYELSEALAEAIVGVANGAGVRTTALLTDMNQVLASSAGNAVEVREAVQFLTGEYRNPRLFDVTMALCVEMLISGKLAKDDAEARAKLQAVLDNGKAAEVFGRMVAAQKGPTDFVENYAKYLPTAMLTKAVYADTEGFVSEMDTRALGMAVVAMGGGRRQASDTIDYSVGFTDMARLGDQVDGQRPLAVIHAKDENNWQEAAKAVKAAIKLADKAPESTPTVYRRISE
Experimental: The adopted protocol is a modification of the original method developed by Khan[51]. TP activity and inhibition assays were based on the phosphorolysis of thymidine to thymine, this conversion results in a significant spectrophotometric decrease. At 290 nm and pH 7.4, thymidine has a higher extinction coefficient than thymine (Δε = −480 M^−1 cm^−1). The absorbance at 290 nm was measured every 2 min for 30 min in 96-well plates at 25 °C.
Thymidine was dissolved in buffer (3 mM). […] All experiments were conducted in triplicate.
The method reported by Khan et al.[51] has been adapted to a screening in 96-well plates (200 µL well, UV-Star® 96-well microplate, Greiner). Each well contained 160 µL of 50 mM KH2PO4 buffer (pH 7.4), 0.006 U of E. coli TP (T2807-1KU, Sigma Aldrich), and 20 µL of the tested compound solution. […] The decrease in absorbance due to conversion of thymidine to thymine was followed during 30 min (PowerWave HT Microplate Reader, Biotek) at 25 °C, with one measure every 2 min and a 30 s shaking before each measure.

[1] = Solubility in the incubation medium; conditions: for solubility: aqueous buffer, kinetic from dmso stock
[2] = compound at 50 µM, 2.5% DMSO, average of three measurements

Compound: O=C1c2cc3c(=O)[nH]c(=O)[nH]c3nc2C(=O)N1CCc1ccccc1 [Compound 28e, 7-Phenylethyl-1H-pyrrolo[3′,4′:5,6]pyrido[2,3-d]pyrimidine-2,4,6,8(3H,7H)-tetraone]
- melting point: 359 to 361 °C
- inhibition at 50 µM (E. coli TP; [2]): 0%

Compound: CN(C)CCCN1C(=O)c2cc3c(=O)[nH]c(=O)[nH]c3nc2C1=O (as salt: hydrochloride) [Compound 28h, 7-(3-(Dimethylamino)propyl)-1H-pyrrolo[3′,4′:5,6]pyrido [2,3-d]pyrimidine-2,4,6,8 (3H,7H)-tetraone, hydrochloride]
- melting point: 309 to 311 °C

Compound: CN(C)CCCN1C(=O)c2cc3c(=O)[nH]c(=O)[nH]c3nc2C1=O [Compound 28h, 7-(3-(Dimethylamino)propyl)-1H-pyrrolo[3′,4′:5,6]pyrido [2,3-d]pyrimidine-2,4,6,8 (3H,7H)-tetraone, hydrochloride]
- inhibition at 50 µM (E. coli TP; [2]): 0%

- melting point: 144 to 148 °C
Compound: CCC(CCCn1c(=O)c(Br)cn(C(CC)CCCN2C(=O)c3cc4cc5c(cc4nc3C2=O)OCO5)c1=O)n1cc(Br)c(=O)[nH]c1=O (stereo not drawn) [Compound 17, 2-[4-[5-Bromo-3-[4-(5-bromo-2,4-dioxo-3,4-dihydropyrimidine-1(2H)-yl)hexyl]-2,4-dioxo-3,4-dihydropyrimidine-1(2H)-yl]hexyl]-6,7-méthylènedioxy-2H-pyrrolo[3,4-b]quinoline-1,3-dione]

Compound: Cc1cn(CCCCN2C(=O)c3cc4cc5c(cc4nc3C2=O)OCO5)c(=O)[nH]c1=O [Compound 13a, 2-[4-(2,4-Dioxo-5-methyl-3,4-dihydropyrimidine-1(2H)-yl)butyl]-6,7-methylenedioxy-2H-pyrrolo[3,4-b]quinoline-1,3-dione]
- melting point: 302 °C
- inhibition at 50 µM (E. coli TP; [2]): 25%

Compound: O=C1NC(=O)c2nc3[nH]c(=O)[nH]c(=O)c3cc21 [Compound 27]
- inhibition at 50 µM (E. coli TP; [2]): 0%

Compound: COc1cc(-c2c3cc4c(cc3nc3[nH]c(=O)[nH]c(=O)c23)OCO4)cc(OC)c1OC [Compound 2r]
- solubility [1]: 25 µM (≈ 10.6 µg/mL)
- inhibition at 25 µM (E. coli TP; compound at 25 µM (maximum solubility), 2.5% DMSO): 0%

Compound: O=c1[nH]c(=O)c2cc3ccc(C(F)(F)F)cc3nc2[nH]1 [Compound 2k]
- inhibition at 50 µM (E. coli TP; [2]): 0%

Compound: 2-[4-(2,4-Dioxo-5-methyl-3,4-dihydropyrimidine-1(2H)-yl)hexyl]-6,7-methylenedioxy-2H-pyrrolo[3,4-b]quinoline-1,3-dione [Compound 13b]
- TP inhibition (%) at 50 µM (E. coli TP; [2]): 0% at 50 µM

Compound: O=c1[nH]c(=O)c2cc3ccc(Cl)cc3nc2[nH]1 [Compound 2j]
- solubility [1]: 50 µM (≈ 12.4 µg/mL)
- inhibition at 50 µM (E. coli TP; [2]): 0%

Compound: Cc1cccc2cc3c(=O)[nH]c(=O)[nH]c3nc12 [Compound 2c]
- inhibition at 50 µM (E. coli TP; [2]): 14%

Compound: COc1ccc(CN2C(=O)c3cc4c(=O)[nH]c(=O)[nH]c4nc3C2=O)c(OC)c1 [Compound 28b]
- inhibition at 50 µM (E. coli TP; [2]): 0%

Compound: Cc1ccc2cc3c(=O)[nH]c(=O)[nH]c3nc2c1 [Compound 2b]
- inhibition at 50 µM (E. coli TP; [2]): 0%

Compound: COc1cc2nc3[nH]c(=O)[nH]c(=O)c3cc2c(OC)c1OC [Compound 2h]
- solubility [1]: 15 µM (≈ 4.55 µg/mL)
- Solubility (in words) ([1]; incubation medium): sparingly soluble
- inhibition at 15 µM (E. coli TP; compound at 15 µM (maximum solubility), 2.5% DMSO): 0%

Compound: Cc1c2cc3c(cc2nc2[nH]c(=O)[nH]c(=O)c12)OCO3 [Compound 2q]
- inhibition at 50 µM (E. coli TP; [2]): 0%

Compound: Cc1ccc2nc3[nH]c(=O)[nH]c(=O)c3cc2c1 [Compound 2a]
- inhibition at 50 µM (E. coli TP; [2]): 0%

Compound: O=C1c2cc3c(=O)[nH]c(=O)[nH]c3nc2C(=O)N1Cc1ccc(Cl)cc1Cl [Compound 28d]
- solubility [1]: 30 µM (≈ 11.7 µg/mL)
- inhibition at 30 µM (E. coli TP): 0%

Compound: O=C1c2cc3c(=O)[nH]c(=O)[nH]c3nc2C(=O)N1CC1CCCCC1 [Compound 28g]
- solubility [1]: 30 µM (≈ 9.85 µg/mL)
- inhibition at 30 µM (E. coli TP): 0%

Compound: O=c1[nH]c(=O)c2cc[nH]c2[nH]1 [Compound 7-DX, 7-Deazaxanthine, reference compound]
- inhibition at 50 µM (E. coli TP; [2]): 60%

Compound: O=c1[nH]c(=O)c2cc3ccc(OCc4ccccc4)cc3nc2[nH]1 [Compound 2f]
- solubility [1]: 50 µM (≈ 16 µg/mL)
- inhibition at 50 µM (E. coli TP; [2]): 0%

Compound: O=c1[nH]c(=O)c2cc3c(ccc4ccccc43)nc2[nH]1 [Compound 2m]
- inhibition at 50 µM (E. coli TP; [2]): 29%
